Structures are written as SMILES.

One may read the Kd as the free concentration of one partner at which half of the binding sites on the other are occupied at equilibrium, for simple one-to-one binding.

In experiment [1] the test system is α1A-AR mediated increased Ngn2 expression in normal neonatal neurospheres. Description: Real time PCR of α1A-AR induced Ngn2 expression with signaling inhibitors. The class given is cell-based, mouse. The following applies: one day phenylephrine treated normal neonatal neurospheres; FIG. 27. As for the experimental part: (§1) Real Time PCR. Neurospheres were grown in proliferation or differentiation medium for 1, 3, 7 and 10 days respectively. The neurospheres grown in the proliferation medium were treated with phenlyephrine for the above-mentioned time along with Rauwalscine (0.1 uM) and Propranolol (1 uM). Total RNA was isolated using the RNAesy kit (Quiagen) and 2 ug RNA was reverse transcribed using oligodT primers with Superscript II Reverse Transcriptase (Invitrogen). Quantitative real time PCR was performed in iCycler (Biorad) using iQ SYBR Green Supermix. (Bio-Rad) The cDNA was amplified with primers for various neural stem cell proliferation and differentiation genes like Notch-1, Nestin, Mash-1, NeuroD, Math-1, Mash-1, Ngn-1, Ngn-2, D1x-2, Sox-2 and Zic-1. Samples obtained from three independent experiments were used for analysis of relative gene expression using the 2(-Delta Delta C(T) Method (Livak, K J and Schmittgen, T D, Methods 25:402-408 (2001)) and were normalized to α-Tubulin gene expression as internal control.
Since Ngn2 mRNA expression, a major gene of neuronal differentiation, appears to be regulated by the α1A-ARs, the common a i-AR signals responsible for this gene regulation was determined. Real time PCR and inhibitors for PKC (GO6983), PI3K (LY294002), MEK (PD98059) and p38 (SB202190) were used on one day phenylephrine treated normal neonatal neurospheres. The α1A-AR mediated increased Ngn2 expression was blocked by PKC, PI3K and MEK (ERK) inhibition but not by the p38 inhibitor (FIG. 27).

Experiment [2] has as its system normal embryonic mouse neurospheres. As to the kind of experiment: Differentiation rates (number of live cells) in differentiation media (−EGF/FGF). Format: cell-based. The note with it: FIG. 16. Here is the method: Differentiation rates (number of live cells) were also measured in normal neurospheres using differentiation media (−EGF/FGF) with and without phenylephrine.
(§2) Differentiation Assay: The neurospheres were differentiated by withdrawing the growth factors either in the differentiation supplement (stem cell technologies) for embryonic neurospheres or in B-27 medium with 2% serum (for neonatal neurospheres) after dissociating them with the chemical dissociation kit (Stem Cell Technologies). The cells were plated at the density of 2×10^5 cells in 12 well plates and treated with Phenylephrine (10 uM).

For experiment [3], the system named is pyramidal cells. Description: Action potential generation in pyramidal cells (unpublished data). The class given is cell-based.
Experiment [4] deals with α1A-AR-EGFP positive hippocampal CA1 interneurons. Description: Cell-attached patch recordings of spontaneous action potentials in hippocampal slices. Format: cell-based, mouse. The note with it: 6FNE 10 μM. As for the experimental part: Slice Preparation and Cell Identification. Hippocampal brain slices were prepared from α1A-AR-EGFP mice in strict accordance with a protocol approved by the Institutional Animal Care and Use Committee at the University of North Dakota. Mice were deeply anesthetized with isoflurane, sacrificed by decapitation, and their brains rapidly removed and placed in an ice-cold saline solution containing (in mM): 130 NaCl, 24 NaHCO3, 5 KCl, 1.25 NaH2PO4, 0.5 CaCl2, 4 MgCl2 and 10 glucose (saturated with 95% O2-5% CO2). The brain was then sectioned at 250-350 μm thick intervals using a Microm HM 650V vibrating blade microtome (Richard-Allen Scientific, Kalamazoo, Mich.). Slices were incubated at 35° C. for 40 min and then allowed to recover for at least 30 min at room temperature (22±1° C.) before experimentation. Slices were transferred to a PC-H chamber with a coverslip bottom (SD Instruments, Grants Pass, Oreg.) mounted on the fixed stage of an upright microscope (Olympus BX51 WI, Tokyo, Japan) equipped with a filter set for fluorescence imaging of EGFP and IR-DIC optics. Interneurons were visualized using 470 nm and 900 nm light with a water immersion objective (Olympus LUMPlanF1 60×IR) and two CCD cameras (Olympus MagnaFire and Sony XC-75, Tokyo, Japan). Dedicated MagnaFire software and a Hamamatsu C-2400 camera controller (Hamamatsu City, Japan) were used to adjust image quality in GFP and IR-DIC channels, respectively. […]
Electrophysiological Recordings. […] Action potentials (APs) were recorded using an Axopatch 200B amplifier (Axon Instruments, Union City, Calif.) in voltage-clamp mode, filtered at 2 kHz, digitized at 10 kHz (Digidata 1322A; Axon Instruments), and recorded to disk using pClamp9.0 software (Axon Instruments). […] Data were analyzed offline using Origin (OriginLab Corp., Northampton, Mass.) and Mini analysis 6.0.1 (Synaptosoft Inc., Decatur, Ga.). Each detected event was inspected visually to exclude obvious false action potentials (AP) before analysis. […] Statistical significance (p<0.05) was determined using the paired Student's t test, and mean values are expressed ±SEM.

The target of experiment [5] is α1-ARs. As to the kind of experiment: Saturation ligand binding on neurosphere membranes. More on the design: species or system mouse. The following applies: normal embryonic and neonatal neurospheres, FIG. 19A. As for the experimental part: Ligand Binding. Membranes were prepared and ligand binding was performed as previously described (Rorabaugh et al., Cardiovas. Res., 65:436-445 (2005)). Saturation or competition binding used the nonselective i-AR antagonist, 2-[β-(4-hydroxyl-3-^125I-iodophenyl)ethylaminomethyl]-tetralone (^125I-HEAT) or ^125I-CYP as the radioligand, using either increasing concentration of the radiolabel or using a KD amount (100 pM) to label total α1-ARs and increasing concentrations of an non-labeled selective antagonist. Non-specific labeling was determined by adding 100 uM phentolamine (or α1-ARs) or 1 uM propranolol (for β-ARs). Bmax and KD were determined through the use of Graphpad Prism. Statistical analysis of the binding data used a one-way ANOVA followed by a Newman-Keul's post-test where p<0.05 was considered significant.

For experiment [6], the system named is α1A-KO neonatal neurospheres. Description: Neurosphere differentiation with phenylephrine, α1A-KO neurospheres. The class given is cell-based, mouse. The note with it: 10 days, FIG. 23B. Here is the method:
(§3) Neurosphere Isolation Periventricular tissue from 1-2 day old pups was removed into HEPES-buffered Eagles' medium. The tissue was diced and incubated with Mg/Ca-free HBSS containing EDTA, trypsin, and DNase. The tissue was washed, centrifuged, and the pellet was triturated in PBS to produce a single-cell suspension and was passed through a 70 um cell strainer. The cells were cultured in B27 media containing heparin, bFGF and EGF until neurosphere development. Neurospheres were dissociated and replated several passages. A single neurosphere was picked, mechanically dissociated, and cloned by dilution.
as §2

In experiment [7] the test system is normal neonatal neurospheres. As to the kind of experiment: Real time PCR of neurogenic genes after phenylephrine stimulation. Format: cell-based, mouse. The note with it: FIG. 26. As for the experimental part:
as §1
On the technique in general: In qPCR the cycle at which signal appears reflects the starting amount.

The test system of experiment [8] is CAM α1A-AR neurospheres. As to the kind of experiment: Neurosphere differentiation with phenylephrine, CAM α1A-AR neurospheres. Format: cell-based, mouse. The following applies: day 10, FIG. 22B. As for the experimental part: as §2
The test system of experiment [9] is normal mouse neurospheres. Description: Neurosphere differentiation with phenylephrine in proliferation media (+EGF/FGF), immunostaining for MAP2, GFAP, NG2. Format: cell-based. The note with it: phenylephrine 10 uM, 3-10 days. As for the experimental part: as §3
Differentiation Assay: […] supplement (stem cell technologies) for embryonic neurospheres or in B-27 medium with 2% serum (for neonatal neurospheres) after dissociating them with the chemical dissociation kit (Stem Cell Technologies). The cells were plated at the density of 2×10^5 cells in 12 well plates and treated with Phenylephrine (10 uM).

For `COc1ccc2c(c1)c(C1=C(c3c[nH]c4ccccc34)C(=O)NC1=O)cn2CCCN(C)C` [GO6983], the “block of α1A-AR mediated increased Ngn2 expression” value in [1] was “blocked”.
Consider `COc1cc2nc(N3CCN(C(=O)c4ccco4)CC3)nc(N)c2cc1OC` [prazosin], for which the “block of the phenylephrine enhancement of neurosphere differentiation” value in experiment [2] (differentiation media (−EGF/FGF) + phenylephrine) was “can be blocked”.
For `Cl.NCC(O)c1cc(O)c(O)cc1F` (centres unmarked) [6FNE, 6-fluoronorepinephrine (6FNE) hydrochloride], the “action potential generation in pyramidal cells” value in experiment [3] is recorded as “inhibits action potential generation”. For the same compound, the “effect on AP frequency over control conditions” value in experiment [4] (FIG. 6D, fully reversible with wash) is recorded as “large increase in AP frequency”. Also, the “frequency of spontaneous action potential discharge, range” value in experiment [4] (n=4, control range 0-0.7 Hz) was 1.8-6.5 Hz. The “frequency of spontaneous action potential discharge, mean” value in experiment [4] (n=4, mean ±SEM, control 0.3±0.1 Hz, 22±1° C.) was determined as 3.5±1.1 Hz.
For `Oc1ccc(-c2nc(-c3ccncc3)c(-c3ccc(F)cc3)[nH]2)cc1` [SB202190], the “block of α1A-AR mediated increased Ngn2 expression” value in experiment [1] is reported as “not”.
In experiment [5], `O=C1c2ccccc2CCC1CNCCc1ccc(O)c([125I])c1` (stereo not drawn) [125I-HEAT, 2-[β-(4-hydroxyl-3-^125I-iodophenyl)ethylaminomethyl]-tetralone] had a Kd of 0.176 nM.
As for `COc1cccc(-c2cc(=O)c3ccccc3o2)c1N` [PD98059], the “block of α1A-AR mediated increased Ngn2 expression” value in experiment [1] was “blocked”.
On to `CNC[C@H](O)c1cccc(O)c1` [Phenylephrine], for which, in [6], the “effect on α1A-KO neurospheres (differentiation)” value is given as “increased formation of neurons”. In addition, in experiment [7], the “increase of α1A-AR mRNA expression” value is given as “two hundred-fold” and the “increase of α1B-AR mRNA expression” value is 10 fold. Moreover, the “mRNA expression of genes involved in neurogenesis and neuronal differentiation” value in [7] (normal neonatal neurospheres) was “induced increased mRNA expression”. Also, the “differentiation of neurospheres (number of live cells)” value in experiment [2] (differentiation media (−EGF/FGF)) is on record as “enhances differentiation of neurospheres”. In experiment [8], the “effect on CAM α1A-AR neurospheres (differentiation)” value is “very little effect”. Further, in [9], the “differentiation of normal neurospheres in proliferation medium (+EGF/FGF)” value is “caused the differentiation of the neurospheres”. Also, the “differentiation of normal neurospheres in proliferation medium (+EGF/FGF)” value in experiment [9] (listed as Phe) is on record as “induced differentiation into all three cell types”.

The record behind these values is patent US20080301822A1, “Role of alpha1-adrenergic receptors” (The Cleveland Clinic Foundation, priority 2005, published 2008).
